Among the data in patent US8450308B2 (Vitae Pharmaceuticals, Inc., priority 2008, dated 2013) are IC50 values, retold here.

The target in this experiment is T1, truncated human beta-secretase (residues 1-458, His6-tagged at the C-terminus) (Homo sapiens, UniProt P56817).
T1 construct: truncated human beta-secretase (residues 1-458, His6-tagged at the C-terminus); His6 (C); made in house; host or cells: insect cells D. melanogaster S2 (baculovirus expression system (so in the source))
Kind of experiment: BACE fluorescence quench assay. The experiment is classed as biochemical. The following applies: in vitro enzyme activity, BACE fluorescence assay, pH 4.5; read-out: IC50.

T1 sequence (P56817 22-458): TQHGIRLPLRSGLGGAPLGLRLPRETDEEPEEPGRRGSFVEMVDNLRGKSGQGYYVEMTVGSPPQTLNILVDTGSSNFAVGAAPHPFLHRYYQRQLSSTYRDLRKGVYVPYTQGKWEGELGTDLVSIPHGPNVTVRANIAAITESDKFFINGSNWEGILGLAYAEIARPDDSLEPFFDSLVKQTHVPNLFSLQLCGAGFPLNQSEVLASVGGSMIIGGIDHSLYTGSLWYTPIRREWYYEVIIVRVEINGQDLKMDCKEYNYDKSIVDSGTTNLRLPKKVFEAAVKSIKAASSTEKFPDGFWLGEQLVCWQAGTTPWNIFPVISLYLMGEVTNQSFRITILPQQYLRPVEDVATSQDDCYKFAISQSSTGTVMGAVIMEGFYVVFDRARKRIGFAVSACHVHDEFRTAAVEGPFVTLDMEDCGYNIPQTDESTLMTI

One may read the IC50 as the concentration that inhibits the measured activity by half. For `CN1OC2(CC(c3cccnc3)Oc3ccc(-c4cccc(C#N)c4)cc32)N=C1N` (stereo not shown) [Compound 95, 3-(3′-amino-2′-methyl-2-(pyridine-3-yl)-2′H-spiro[chroman-4,5′-[1,2,4]-oxadiazole]-6-yl)benzonitrile], the IC50 fell in the range of 1 to 5 µM.

On to `CN1OC2(CC(c3ccccc3)Oc3ccc(-c4cccc(C#N)c4)cc32)N=C1N` (stereo not shown) [Compound 96, 3-(3′-amino-2′-methyl-2-phenyl-2′H-spiro[chroman-4,5′-[1,2,4]oxadiazole]-6-yl)benzonitrile], for which the IC50 was 1 to 5 µM. As for `CN1OC2(CCOc3ccc(-c4cccc(C#N)c4)cc32)N=C1N` (stereo not shown) [Compound 97, 3-(3′-Amino-2′-methyl-2′H-spiro[chroman-4,5′-[1,2,4]oxadiazole]-6-yl)benzonitrile], the figure is 1 to 5 µM; as for `CN1OC2(CC(C3CCCOC3)Oc3ccc(-c4cncnc4)cc32)N=C1N` (stereo not shown) [Compound 98], 1 to 5 µM; as for `CN1OC2(CC(C3CCCC3)Oc3ccc(-c4cccc(C#N)c4)cc32)N=C1N` (stereo not shown) [Compound 99], 1 to 5 µM. As for `CN1OC2(CC(CO)(CO)Oc3ccc(-c4cccc(C#N)c4)cc32)N=C1N` (stereo not shown) [Compound 100, 3-(2,2-bis(hydroxymethyl)-3′-imino-2′-methylspiro[chroman-4,5′-[1,2,4]oxadiazolidine]-6-yl)benzonitrile], the figure is 1 to 5 µM; as for `CC(C)c1cccc(-c2ccc3c(c2)C2(CC(C4CCCOC4)O3)N=C(N)N(C)O2)c1` (stereo not shown) [Compound 101, 6-(3-isopropylphenyl)-2′-methyl-2-(tetrahydro-2H-pyran-3-yl)-2′H-spiro[chroman-4,5′-[1,2,4]oxadiazol]-3′-amine], 1 to 5 µM. As to `CN1OC2(CC(c3ccccc3)Oc3ccc(-c4cccnc4)cc32)N=C1N` (stereo not shown) [Compound 102, 2′-methyl-2-phenyl-6-(pyridin-3-yl)-2′H-spiro[chroman-4,5′-[1,2,4]oxadiazol]-3′-amine], the IC50 was 1 to 5 µM. Turning to `CN1OC2(CC(c3ccccc3)Oc3ccc(-c4ccc(F)c(C#N)c4)cc32)N=C1N` (stereo not shown) [Compound 103, 5-(3′-amino-2′-methyl-2-phenyl-2′H-spiro(chroman-4,5′-(1,2,4)oxadiazole)-6-yl)-2-fluorobenzonitrile], the IC50 lay within 5 to 10 µM. With `CN1OC2(CC(c3ccccc3)Oc3cc(F)c(-c4cccnc4F)cc32)N=C1N` (stereo not shown) [Compound 104, 7-fluoro-6-(2-fluoropyridin-3-yl)-2′-methyl-2-phenyl-2′H-spiro[chroman-4,5′-[1,2,4]oxadiazol]-3′-amine], the IC50 was 5 to 10 µM.

`CN1OC2(CC(c3ccncc3)Oc3ccc(-c4cccc(C#N)c4)cc32)N=C1N` (stereo not shown) [Compound 105, 3-(3′-amino-2′-methyl-2-(pyridin-4-yl)-2′H-spiro[chroman-4,5′-[1,2,4]oxadiazole]-6-yl)benzonitrile]: the IC50 lay in the range of 5 to 10 µM. Then `CN1OC2(CC(c3ccccn3)Oc3ccc(-c4cccc(C#N)c4)cc32)N=C1N` (stereo not shown) [Compound 106, 3-(3′-amino-2′-methyl-2-(pyridin-2-yl)-2′H-spiro[chroman-4,5′-[1,2,4]oxadiazole]-6-yl)benzonitrile], with 5 to 10 µM.

For the molecule `CN1OC2(CC(c3ccc(OC(F)(F)F)cc3)Oc3ccc(-c4cccc(C#N)c4)cc32)N=C1N` (stereo not shown) [Compound 107, 3-(3′-amino-2′-methyl-2-(4-(trifluoromethoxy)phenyl)-2′H-spiro[chroman-4,5′-[1,2,4]oxadiazole]-6-yl)benzonitrile], the IC50 lay within 10 to 50 µM. As for `CN1OC2(CC(c3ccccc3)Oc3ccc(Oc4ccccc4)cc32)N=C1N` (stereo not shown) [Compound 108, 2′-methyl-6-phenoxy-2-phenyl-2′H-spiro[chroman-4,5′-[1,2,4]oxadiazol]-3′-amine], the figure is 10 to 50 µM. `CN1OC2(N=C1N)c1cc(-c3cccc(C#N)c3)ccc1OC1(CCCOC1)C2F` (stereo not shown) [Compound 109]: the half-inhibitory concentration (IC50) fell in the range of 0.1 to 0.5 µM.

For `CN1OC2(CC3(CCCOC3)Oc3ccc(-c4cccc(Cl)c4)cc32)N=C1N` (stereo not shown) [Compound 110], the IC50 lay within 0.1 to 0.5 µM.

For the molecule `CC1C2(CCCOC2)Oc2ccc(-c3cccc(C#N)c3)cc2C12N=C(N)N(C)O2` (stereo not shown) [Compound 111], the IC50 lay within 0.1 to 0.5 µM. For the molecule `CN1OC2(N=C1N)c1cc(-c3cccc(C#N)c3)ccc1OC1(CCCOC1)C2(F)F` (stereo not shown) [Compound 112], the IC50 lay within 0.5 to 1 µM.

Consider `CN1O[C@@]2(C[C@]3(CCOC3)Oc3ccc(-c4cccc(C#N)c4)cc32)N=C1N` [Compound 113b], for which the IC50 is 0.5 to 1 µM. On to `CN1OC2(CC3(CCCCOC3)Oc3ccc(-c4cccc(C#N)c4)cc32)N=C1N` (stereo not shown) [Compound 114], for which the IC50 was 0.5 to 1 µM. In the case of `CN1OC2(CC3(CCOCC3)Oc3ccc(-c4cccc(C#N)c4)cc32)N=C1N` (stereo not shown) [Compound 115], the IC50 was 0.5 to 1 µM. Turning to `CN1OC2(CC3(CCCOCC3)Oc3ccc(-c4cccc(C#N)c4)cc32)N=C1N` (stereo not shown) [Compound 116], the IC50 lay in the range of 1 to 5 µM.

In the case of `CN1OC2(CC3(CCCOC3)Oc3ccc(-c4cccc(C#N)c4)cc32)N=C1N` (stereo not shown) [Compound 117], the IC50 fell in the range of 1 to 5 µM. Then `CN1OC2(CC3(CCCCC3)Oc3ccc(-c4cccc(C#N)c4)cc32)NC1=N` (stereo not shown) [Compound 118, 3-(3″-Imino-2″-methylspiro[spiro(chroman-2,1″-cyclohexane)-4,5′-[1,2,4]oxadiazolidine]-6-yl)benzonitrile], with 1 to 5 µM; and `CN1OC2(CC3(CCCOC3)Oc3ccc(-c4cccc(F)c4)cc32)N=C1N` (stereo not shown) [Compound 119], with 1 to 5 µM.

As to `CCC1CCC2(C1)CC1(N=C(N)N(C)O1)c1cc(-c3cccc(C#N)c3)ccc1O2` (stereo not shown) [Compound 120], the IC50 is 1 to 5 µM. As to `CC(C)C1CCC2(C1)CC1(N=C(N)N(C)O1)c1cc(-c3cccc(C#N)c3)ccc1O2` (stereo not shown) [Compound 121], the IC50 lay within 1 to 5 µM. Then `CN1OC2(CC3(CCCOC3)Oc3ccc(C4CCCCC4)cc32)N=C1N` (stereo not shown) [Compound 122], with 1 to 5 µM; and `CN1OC2(CC3(COC(C)(C)OC3)Oc3ccc(-c4cccc(C#N)c4)cc32)N=C1N` (stereo not shown) [Compound 123, 3-(3″-imino-2″-methylspiro[spiro(chroman-2,1′-(4,4-dimethyl-3,5-dioxane))-4,5″-[1,2,4]oxadiazolidine]-6-yl)benzonitrile], with 5 to 10 µM. In the case of `CCOc1cccc(-c2ccc3c(c2)C2(CC4(CCCOC4)O3)N=C(N)N(C)O2)c1` (stereo not shown) [Compound 124], the IC50 was in the range of 5 to 10 µM. As to `CC1CCC2(C1)CC1(N=C(N)N(C)O1)c1cc(-c3cccc(C#N)c3)ccc1O2` (stereo not shown) [Compound 125], the IC50 lay in the range of 5 to 10 µM. Then `CCCOc1cccc(-c2ccc3c(c2)C2(CC4(CCCOC4)O3)N=C(N)N(C)O2)c1` (stereo not shown) [Compound 126], with 5 to 10 µM; and `CN1O[C@@]2(C[C@@]3(CCC(C(C)(C)C)C3)Oc3ccc(-c4cccc(C#N)c4)cc32)N=C1N` (stereo partly shown) [Compound 127a], with 5 to 10 µM; and `CN1O[C@@]2(C[C@]3(CCC(C(C)(C)C)C3)Oc3ccc(-c4cccc(C#N)c4)cc32)N=C1N` (stereo partly shown) [Compound 127b], with 5 to 10 µM. Regarding `COCCCOc1cccc(-c2ccc3c(c2)C2(CC4(CCCOC4)O3)N=C(N)N(C)O2)c1` (stereo not shown) [Compound 128], the IC50 was in the range of 10 to 50 µM. As for `COCCOc1cccc(-c2ccc3c(c2)C2(CC4(CCCOC4)O3)N=C(N)N(C)O2)c1` (stereo not shown) [Compound 129], the IC50 was 10 to 50 µM. `CN1OC2(CC3(CCCOC3)Oc3ccc(Oc4ccccc4)cc32)N=C1N` (stereo not shown) [Compound 130]: the IC50 fell in the range of 10 to 50 µM.

In the case of `CN1C(=O)[C@@]2(C[C@@]3(CCCOC3)Oc3ccc(-c4cc(Cl)cc(Cl)c4)cc32)N=C1N` [Compound 281], the IC50 fell in the range of 0.1 to 0.5 µM. With `CN1C(=O)C2(CC(C3CCOC(C)(C)C3)Oc3ccc(-c4cc(C#N)ccc4C(F)(F)F)cc32)N=C1N` (stereo not shown) [Compound 284], the IC50 is 0.1 to 0.5 µM. On to `CN1O[C@@]2(C[C@@H]([C@@H]3CCOC(C)(C)C3)Oc3ccc(-c4cccc(C#N)c4)cc32)N=C1N` [Compound 285], for which the IC50 lay in the range of 0.1 to 0.5 µM. As for `CN1C(=O)[C@@]2(C[C@@]3(CCCOC3)Oc3ccc(-c4cccc(Cl)c4)cc32)N=C1N` [Compound 289], the figure is 0.1 to 0.5 µM; as for `CN1C(=O)C2(CC3(CCCOC3)Oc3ccc(-c4cccc(C#N)c4F)cc32)N=C1N` (stereo not shown) [Compound 291], 0.1 to 0.5 µM.

On to `Cc1ccc(C#N)cc1-c1ccc2c(c1)C1(CC(C3CCOC(C)(C)C3)O2)N=C(N)N(C)O1` (stereo not shown) [Compound 292], for which the IC50 fell in the range of 0.1 to 0.5 µM. As for `CSc1cccc(-c2ccc3c(c2)[C@]2(C[C@]4(CCCOC4)O3)N=C(N)N(C)C2=O)c1` [Compound 296], the figure is 0.1 to 0.5 µM; as for `CN1C(=O)C2(CC(C3CCOC(C)(C)C3)Oc3ccc(-c4cc(F)ccc4F)cc32)N=C1N` (stereo not shown) [Compound 300], 0.1 to 0.5 µM. As for `Cc1cccc(-c2ccc3c(c2)C2(CC4(CCCOC4)O3)N=C(N)N(C)C2=O)c1` (stereo not shown) [Compound 301], the figure is 0.1 to 0.5 µM. As for `CN1C(=O)[C@@]2(C[C@@]3(CCCOC3)Oc3ccc(-c4cc(C#N)cc(C(F)(F)F)c4)cc32)N=C1N` [Compound 304], the IC50 was in the range of 0.1 to 0.5 µM. Then `COc1ccc(OC)c(-c2ccc3c(c2)[C@]2(C[C@]4(CCCOC4)O3)N=C(N)N(C)C2=O)c1` [Compound 307], with 0.1 to 0.5 µM; and `CN1C(=O)[C@@]2(C[C@@]3(CCCOC3)Oc3ccc(-c4cc(C#N)cc(C#N)c4)cc32)N=C1N` [Compound 309], with 0.1 to 0.5 µM.

With `CN1C(=O)[C@@]2(C[C@@]3(CCCOC3)Oc3ccc(-c4ccc(F)c(Cl)c4)cc32)N=C1N` [Compound 310], the IC50 lay in the range of 0.1 to 0.5 µM. As for `CN1OC2(C[C@H]([C@H]3CCOC(C)(C)C3)Oc3ccc(-c4cccc(C#N)c4F)cc32)N=C1N` (stereo partly shown) [Compound 312], the figure is 0.1 to 0.5 µM; as for `CN1OC2(CC3(Cc4ccccc4C3)Oc3ccc(-c4cccc(C#N)c4)cc32)N=C1N` (stereo not shown) [Compound 315], 0.1 to 0.5 µM. For the molecule `CN1C(=O)C2(C[C@]3(CCCOC3)Oc3ccc(-c4cccc(Br)c4)cc32)N=C1N` (stereo partly shown) [Compound 318], the IC50 lay within 0.1 to 0.5 µM.

As for `CC1CC(C2CC3(N=C(N)N(C)O3)c3cc(-c4cccc(C#N)c4)ccc3O2)CC(C)O1` (stereo not shown) [Compound 319], the IC50 lay within 0.1 to 0.5 µM. Consider `COc1ccc(OC)c(-c2ccc3c(c2)[C@]2(C[C@@]4(CCCOC4)O3)N=C(N)N(C)C2=O)c1` [Compound 321], for which the IC50 is 0.1 to 0.5 µM.
